Experimental data reported in US5665745A, “Heterocyclic compounds and their preparation and use” (Eli Lilly and Company, priority 1995, dated 1997).
Read-outs that look alike come from different tables or passages of the source.

Assays:
[1] = target: muscarinic acetylcholine receptors; experiment: inhibition of specific binding of ^3 H-Oxotremorine-M (^3 H-Oxo); set-up: species or system rat (male Wistar; conditions: ^3 H-Oxotremorine 1.0 nM, rat cortex, 30 min. at 25° C.
Excerpt: The pharmacological properties of the compounds of the invention can be illustrated by determining their capability to inhibit the specific binding of ^3 H-Oxotremorine-M (^3 H-Oxo). Birdsdall N. J. M., Hulme E. C., and Burgen A. S. V. (1980). "The Character of Muscarinic Receptors in Different Regions of the Rat Brain" Proc. Roy. Soc. London (Series B) 207,1.
^3 H-Oxo labels muscarinic receptor in the CNS (with a preference for agonist domains of the receptors). Three different sites are labeled by ^3 H-Oxo. […] Using the present experimental conditions only the high and medium affinity sites are determined.
The inhibitory effects of compounds on ^3 H-oxo binding reflects the affinity for muscarinic acetylcholine receptors.
(§1) All preparations are performed at 0°-4° C. unless otherwise indicated. Fresh cortex (0.1-1 g) from male Wistar rats (150-250 g) is homogenized for 5-10 seconds in 10 mL 20 nM Hepes pH: 7.4, with an Ultra-Turrax homogenizer. The homogenizer is rinsed with 10 mL of buffer and the combined suspension centrifuged for 15 min. at 40,000×g. The pellet is washed three times with buffer. In each step the pellet is homogenized as before in 2×10 mL of buffer and centrifuged for 10 min. at 40,000×g.
The final pellet is homogenized in 20 mM Hepes pH: 7.4 (100 mL per g of original tissue) and used for binding assay. Aliquots of 0.5 mL is added 25 μL of test solution and 25 μL of ^3 H-Oxotremorine (1.0 nM, final concentration) mixed and incubated for 30 min. at 25° C. Non-specific binding is determined in triplicate using arecoline ([…], final concentration) as the test substance. After incubation samples are added 5 mL of ice-cold buffer and poured directly onto Whatman GF/C glass fiber filters under suction and immediately washed 2 times with 5 mL of ice-cold buffer. The amount of radioactivity on the filters are determined by conventional liquid scintillation counting. Specific binding is total binding minus non specific binding.
Test substances are dissolved in 10 mL water (if necessary heated on a steam-bath for less than 5 min.) at a concentration of 2.2 mg/mL. […] The test value will be given as IC50 (the concentration (nM) of the test substance which inhibits the specific binding of ^3 H-oxo by 50%). IC50 =(applied test substance concentration) x(Cx /Co -Cx)nM where Co is specific binding in control assays and Cx is the specific binding in the test assay. (The calculations assume normal mass-action kinetics).

[2] = target: T1, muscarinic receptors (M1 -site, pirenzepine sensitive site) (Rattus norvegicus, UniProt P08482); experiment: inhibition of ^3 HPRZ (pirenzepine, [N-methyl-^3 H]) binding to rat cerebral cortex membranes; set-up: species or system rat (male Wistar
T1 construct: from tissue; host or cells: cerebral cortex membranes of male Wistar rats
T1 sequence (P08482 1-460): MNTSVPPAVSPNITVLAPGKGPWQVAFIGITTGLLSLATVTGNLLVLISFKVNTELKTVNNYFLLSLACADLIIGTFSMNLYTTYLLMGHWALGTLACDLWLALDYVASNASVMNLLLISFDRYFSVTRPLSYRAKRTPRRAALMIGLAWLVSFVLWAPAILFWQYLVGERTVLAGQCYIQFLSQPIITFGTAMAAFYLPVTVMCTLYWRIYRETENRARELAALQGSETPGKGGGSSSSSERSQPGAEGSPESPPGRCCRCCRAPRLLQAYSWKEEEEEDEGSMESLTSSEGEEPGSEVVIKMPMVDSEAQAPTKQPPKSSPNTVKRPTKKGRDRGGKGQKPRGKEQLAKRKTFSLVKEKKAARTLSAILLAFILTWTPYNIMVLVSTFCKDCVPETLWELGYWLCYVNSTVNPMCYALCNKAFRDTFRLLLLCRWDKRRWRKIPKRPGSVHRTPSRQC
Method: Furthermore the pharmacological properties of the compounds of the invention can also be illustrated by determining their capability to inhibit ^3 HPRZ (pirenzepine, [N-methyl-^3 H]) binding to rat cerebral cortex membranes.
Pirenzepine binds selectively to subtype of muscarinic receptors. Historically the type is named the M1 -site, whereas pirenzepine sensitive site would be more appropriate.
as §1, with “cortex ([…])” for “cortex (0.1-1 g)”, “rats (150-200” for “rats (150-250”, “5-10 s” for “5-10 seconds”, “20 mM” for “20 nM”, “with 2×10” for “with 10”, “in 3×10” for “in 2×10”
The final pellet is homogenized in 20 mM Hepes pH: 7.4 (100 mL per g of original tissue) and used for binding assay. Aliquots of 0.5 mL is added 20 μl of test solution and 25 μL of ^3 HPRZ (1.0 nM, final conc.), mixed and incubated for 60 min. at 20° C. Non-specific binding is determined in triplicate using atropine (1 ,μg/mL, final conc.) as the test substance. After incubation samples are added 5 mL of ice-cold buffer and poured directly onto Whatman GF/C glass fiber filters under suction and immediately washed 2 times with 5 mL of ice-cold buffer. The amount of radioactivity on the filters are determined by conventional liquid scintillation counting. Specific binding is total binding minus non-specific binding.
Test substances are dissolved in 10 mL water, at a concentration of 0.22 mg/mL.
The test value will be given as IC50 (the concentration (nM) of the test substance which inhibits the specific binding of ^3 HPRZ by 50%). IC50 =(applied test substance concentration) x(Cx /Co -Cx)nM where Co is specific binding in control assays and Cx is the specific binding in the test assay. (The calculations assume normal mass-action kinetics).

[3] = ^3 HPRZ 1.0 nM, rat cortex, 60 min. at 20° C., read-out: ^3 HPRZ IC50 (head from b208 on: Pir IC-50)

IC50 [2, 3] | Structure (SMILES) | IC50 [1] | IC50 [2]
120 nM | CC(C)(C)c1ccc(COc2nsnc2O[C@@H]2CN3CCC[C@H]2C3)cc1 (relative stereo) [Compound 198, (±)-endo-3-(4-tert-Butylbenzyloxy)-4-(1-azabicyclo[3.2.1]octyl-6-oxy)-1,2,5-thiadiazole] | 31 nM | 
0.72 nM | CCCCSc1nsnc1OC1CC2CCC1NC2 (racemic) [Compound 65, (±)3-Butylthio-4-(exo-2-azabicyclo[2.2.2]oct-6-yloxy)-1,2,5-thiadiazole] | 2.3 nM | 
 | CC(C)CCCOc1nsnc1OC1CN2CCC1CC2 (racemic) [Compound 11, (±)-3-(4-Methylpentyloxy)-4-(1-azabicyclo[2.2.2]octyl-3-oxy)-1,2,5-thiadiazole] | 29 nM | 33 nM
 | C/C=C/COc1nsnc1OC1CN2CCC1CC2 (mixture of isomers) [Compound 109, (±)-3-(trans-2-butenyloxy)-4-(1-azabicyclo[2.2.2]octyl-3-oxy)-1,2,5-thiadiazole] | 12.3 nM | 58.3 nM
 | Clc1nsnc1OC1CN2CCC1CC2 (racemic) [Compound 12, (±)-3-Chloro-4-(1-azabicyclo[2.2.2]octyl-3-oxy)-1,2,5-thiadiazole] | 73 nM | 86 nM
 | C#CCCOc1nsnc1OC1CN2CCC1CC2 (racemic) [Compound 113, (±)-3-(3-butynoxy)-4-(1-azabicyclo[2.2.2]octyl-3-oxy)-1,2,5-thiadiazole] | 3.6 nM | 23 nM
 | Clc1nsnc1O[C@H]1CN2CCC[C@@H]1C2 (relative stereo) [Compound 48, (±)-endo-3-Chloro-4-(1-azabicyclo [3.2.1]octyl-6-oxy)-1,2,5-thiadiazole] | 14 nM | 27 nM
 | Fc1ccc(OCCSc2nsnc2OC2CN3CCC2CC3)cc1 (racemic) [Compound 207, (±)-3-(2-[4-fluorophenoxy]ethylthio)-4-(1-azabicyclo[2.2.2]octyl-3-oxy)-1,2,5-thiadiazole] | 2.4 nM | 6 nM
 | CCCCOc1nsnc1O[C@@H]1CN2CC[C@H]1C2 (relative stereo) [Compound 25, (±)-endo-3-Butyloxy-4-(1-azabicyclo[2.2.1]heptyl-3-oxy)-1,2,5-thiadiazol] | 1.8 nM | 2.1 nM
25 nM | CCCCOc1nsnc1OC1CCN(C)C1 (racemic) [Compound 28, (±)-3-Butyloxy-4-(1-methyl-3-pyrrolidinyloxy)-1,2,5-thiadiazole] | 37 nM | 
3.8 nM | c1csc(CCOc2nsnc2O[C@@H]2CN3CCC[C@H]2C3)c1 (relative stereo) [Compound 189, (±)-endo-3-[2-(2-Thienyl)ethoxy]-4-(1-azabicyclo[3.2.1]octyl-6-oxy)-1,2,5-thiadiozole] | 1.7 nM | 
6.42 nM | CCCCCCOc1nsnc1O[C@@H]1CN2CCC[C@H]1C2 (relative stereo) [Compound 136, (±)-endo-3-Hexyloxy-4-(1-azabicyclo[3.2.1]octyl-6-oxy)-1,2,5-thiadiazole] | 2.73 nM | 
2.7 nM | CC#CCCOc1nsnc1O[C@@H]1CN2CCC[C@H]1C2 (relative stereo) [Compound 175, (±)-endo-3-(3-Pentynyloxy)-4-(1-azabicyclo[3.2.1]octyl-6-oxy)-1,2,5-thiadiazole] | 0.74 nM | 
19 nM | CCCCSc1nsnc1OC1CCN(C)CC1 [Compound 30, 3-Butylthio-4-(1-methyl-4-piperidyloxy)-1,2,5-thiadiazole] | 69 nM | 
33 nM | CCCCOc1nsnc1OCC[N+](C)(C)C [Compound 35, 3-Butyloxy-4-(2-(trimethylamino)ethoxy)-1,2,5-thiadiazole iodide] | 23 nM | 
9.9 nM | COCCOc1nsnc1O[C@@H]1CN2CCC[C@H]1C2 (relative stereo) [Compound 183, (±)-endo-3-(2-Methoxyethoxy)-4-(1-azabicyclo[3.2.1]octyl-6-oxy)-1,2,5-thiadiazole] | 2.6 nM | 
0.55 nM | c1ccc(CCCSc2nsnc2O[C@H]2CN3CCC[C@@H]2C3)cc1 (relative stereo) [Compound 72, (±)3-(3-Phenylpropylthio)-4-[endo-6-(1-azabicyclo[3.2.1].cent.octyloxy)]-1,2,5-thiadiazole] | 1.9 nM | 
12 nM | C1=CC(Oc2nsnc2OC2CN3CCCC2C3)CCC1 (mixture of isomers) [Compound 174, (±)-endo-3-(2-Cyclohexenyloxy)-4-(1-azabicyclo[3.2.1]octyl-6-oxy)-1,2,5-thiadiazole] | 2.1 nM | 

Structure (SMILES) | IC50 [2, 3] | IC50 [1] | IC50 [2]
c1csc(-c2ccc(SCCSc3nsnc3OC3CN4CCC3CC4)s2)c1 (racemic) [Compound 59, (±)-3-(2-(2-(5-(2-Thienyl)thienyl)thio)ethylthio)-4-(1-azabicyclo[2.2.2]octyl-3-oxy)-1,2,5-thiadiazole] | 102 nM | 104 nM | 
FCCCOc1nsnc1OC1CN2CCC1CC2 (racemic) [Compound 123, (±)-3-(3-Fluoropropyloxy)-4-(1-azabicyclo[2.2.2]octyl-3-oxy)-1,2,5-thiadiazole] | 106 nM | 42 nM | 
COc1ccc(CCCOc2nsnc2OC2CN3CCC2CC3)cn1 (racemic) [Compound 119, (±)-3-(3-[2-Methoxy-5-pyridyl]propyloxy)-4-(1-azabicyclo[2.2.2]octyl-3-oxy)-1,2,5-thiadiazole] | 124 nM | 17 nM | 
c1nsnc1OC1CN2CCC1CC2 (racemic) [Compound 100, (±)-3-(1-azabicyclo[2.2.2]octyl-3-oxy)-1,2,5-thiadiazole] | 846 nM | 873 nM | 
Brc1ccc(OCCOc2nsnc2OC2CN3CCC2CC3)cc1 (racemic) [Compound 128, (±)-3-(2-[4-Bromophenoxy]ethoxy)-4-(1-azabicyclo[2.2.2]octyl-3-oxy)-1,2,5-thiadiazole] | 109 nM | 6.9 nM | 
FCCCCOc1nsnc1O[C@@H]1CN2CCC[C@H]1C2 (relative stereo) [Compound 197, (±)-endo-3-(4-Fluorobutoxy)-4-(1-azabicyclo[3.2.1]octyl-6-oxy)-1,2,5-thiadiazole] | 6.9 nM | 2.3 nM | 
